Reference: ChEMBL document CHEMBL3045333, “Asymmetric aza-Michael additions of 4-nitrophthalimide to nitroalkenes and preliminary study of the products for herbicidal activities” (2013)

Tests used:
Assay type in all cases: functional
[1] = tested on: Echinochloa crus-galli; assay: Herbicidal activity against Echinochloa crus-galli (barnyard grass) assessed as reduction of seedling height growth in light conditions at 10 ug/ml treated twice; conditions: read-out: GI
[2] = tested on: Echinochloa crus-galli; assay: Herbicidal activity against Echinochloa crus-galli (barnyard grass) assessed as reduction of seedling height growth in light conditions at 100 ug/ml treated twice; conditions: for inhibition of growth at 100 µg/mL: Echinochloa crus-galli, read-out: GI
[3] = tested on: Echinochloa crus-galli; assay: Herbicidal activity against Echinochloa crus-galli (barnyard grass) assessed as reduction of radical growth in dark conditions at 10 ug/ml treated twice; conditions: for inhibition of growth at 10 µg/mL: Echinochloa crus-galli, read-out: GI
[4] = tested on: Echinochloa crus-galli; assay: Herbicidal activity against Echinochloa crus-galli (barnyard grass) assessed as reduction of radical growth in dark conditions at 100 ug/ml treated twice; conditions: for inhibition of growth at 100 µg/mL: Echinochloa crus-galli, read-out: GI

Compound | inhibition of growth at 10 µg/mL [1] [%] | growth inhibition (GI) [2] [%] | growth inhibition (GI) [3] [%] | growth inhibition (GI) [4] [%] | inhibition of growth at 100 µg/mL [2] [%] | inhibition of growth at 10 µg/mL [3] [%] | inhibition of growth at 100 µg/mL [4] [%]
O=C1c2ccc([N+](=O)[O-])cc2C(=O)C1C(C[N+](=O)[O-])c1ccc(Cl)cc1 (stereo in doubt; 4be) | 0 | 9.7 | 0 | 5 |  |  | 
O=C1c2ccc([N+](=O)[O-])cc2C(=O)C1C(C[N+](=O)[O-])c1ccc(Cl)cc1Cl (centres undefined) | 0 |  |  |  | 0 | 5 | 10
O=C1c2ccc([N+](=O)[O-])cc2C(=O)C1C(C[N+](=O)[O-])c1ccc(Cl)cc1 (racemic) |  | 55.5 | 5 |  |  |  | 10
O=C1c2ccc([N+](=O)[O-])cc2C(=O)C1C(C[N+](=O)[O-])c1ccc(F)cc1 (racemic) |  | 64.1 |  |  |  | 0 | 0
O=C1c2ccc([N+](=O)[O-])cc2C(=O)C1C(C[N+](=O)[O-])c1ccc(F)cc1 (stereo in doubt; 4bd) | 0 | 22 |  |  |  |  | 
O=C1c2ccc([N+](=O)[O-])cc2C(=O)C1C(C[N+](=O)[O-])c1ccccc1Cl (centres undefined) | 0 |  |  |  | 93.2 | 0 | 59.6
O=C1c2ccc([N+](=O)[O-])cc2C(=O)C1C(C[N+](=O)[O-])c1cccc(Cl)c1 (centres undefined) | 0 |  |  |  | 0 | 0 | 0
